Experiment [1] has as its target Dual specificity protein kinase CLK3 (Homo sapiens, UniProt P49761). It counts as subcellular, K-562, COLO 205, SK-N-BE(2) and MV-4-11, Cell lysate. The following applies: read-out: Kd apparent.
Experiment [2] has as its target Cell division cycle 7-related protein kinase (Homo sapiens, UniProt O00311).
Experiment [3] deals with Dual specificity protein kinase CLK2 (Homo sapiens, UniProt P49760).
Experiment [4] deals with Epidermal growth factor receptor (Homo sapiens, UniProt P00533).
Experiment [5] has as its target T1, Isoleucine--tRNA ligase, mitochondrial (Homo sapiens, UniProt Q9NSE4).
T1 sequence (Q9NSE4 whole entry): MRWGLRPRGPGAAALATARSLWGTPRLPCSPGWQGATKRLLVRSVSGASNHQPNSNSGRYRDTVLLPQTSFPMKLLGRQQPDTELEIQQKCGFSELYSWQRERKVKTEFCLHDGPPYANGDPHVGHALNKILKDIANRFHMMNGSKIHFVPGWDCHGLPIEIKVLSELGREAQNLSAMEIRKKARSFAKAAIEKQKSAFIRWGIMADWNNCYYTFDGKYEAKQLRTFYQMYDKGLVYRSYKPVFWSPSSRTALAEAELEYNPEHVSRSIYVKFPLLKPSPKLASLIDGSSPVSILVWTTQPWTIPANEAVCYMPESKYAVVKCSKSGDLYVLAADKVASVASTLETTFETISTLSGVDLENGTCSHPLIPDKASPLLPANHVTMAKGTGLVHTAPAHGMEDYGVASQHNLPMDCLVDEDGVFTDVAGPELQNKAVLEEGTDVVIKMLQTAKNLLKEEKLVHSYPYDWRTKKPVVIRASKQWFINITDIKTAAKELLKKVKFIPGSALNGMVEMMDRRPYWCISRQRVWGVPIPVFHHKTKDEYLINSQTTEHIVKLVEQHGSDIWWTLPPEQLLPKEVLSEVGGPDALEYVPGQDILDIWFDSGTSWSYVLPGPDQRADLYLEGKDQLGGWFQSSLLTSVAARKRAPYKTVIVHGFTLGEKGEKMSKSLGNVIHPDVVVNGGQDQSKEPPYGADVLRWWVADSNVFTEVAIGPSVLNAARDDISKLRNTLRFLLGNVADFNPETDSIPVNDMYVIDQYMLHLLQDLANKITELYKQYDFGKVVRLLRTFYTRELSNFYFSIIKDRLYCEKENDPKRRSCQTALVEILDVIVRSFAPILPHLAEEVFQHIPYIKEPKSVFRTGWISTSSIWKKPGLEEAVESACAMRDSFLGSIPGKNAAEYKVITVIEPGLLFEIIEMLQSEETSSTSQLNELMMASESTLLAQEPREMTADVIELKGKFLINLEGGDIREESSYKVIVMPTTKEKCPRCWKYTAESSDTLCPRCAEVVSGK

Experiment [6] concerns the target MAP kinase-activated protein kinase 3 (Homo sapiens, UniProt Q16644).
In experiment [7] the target is High affinity nerve growth factor receptor (Homo sapiens, UniProt P04629).
High affinity nerve growth factor receptor, sequence (P04629 whole entry): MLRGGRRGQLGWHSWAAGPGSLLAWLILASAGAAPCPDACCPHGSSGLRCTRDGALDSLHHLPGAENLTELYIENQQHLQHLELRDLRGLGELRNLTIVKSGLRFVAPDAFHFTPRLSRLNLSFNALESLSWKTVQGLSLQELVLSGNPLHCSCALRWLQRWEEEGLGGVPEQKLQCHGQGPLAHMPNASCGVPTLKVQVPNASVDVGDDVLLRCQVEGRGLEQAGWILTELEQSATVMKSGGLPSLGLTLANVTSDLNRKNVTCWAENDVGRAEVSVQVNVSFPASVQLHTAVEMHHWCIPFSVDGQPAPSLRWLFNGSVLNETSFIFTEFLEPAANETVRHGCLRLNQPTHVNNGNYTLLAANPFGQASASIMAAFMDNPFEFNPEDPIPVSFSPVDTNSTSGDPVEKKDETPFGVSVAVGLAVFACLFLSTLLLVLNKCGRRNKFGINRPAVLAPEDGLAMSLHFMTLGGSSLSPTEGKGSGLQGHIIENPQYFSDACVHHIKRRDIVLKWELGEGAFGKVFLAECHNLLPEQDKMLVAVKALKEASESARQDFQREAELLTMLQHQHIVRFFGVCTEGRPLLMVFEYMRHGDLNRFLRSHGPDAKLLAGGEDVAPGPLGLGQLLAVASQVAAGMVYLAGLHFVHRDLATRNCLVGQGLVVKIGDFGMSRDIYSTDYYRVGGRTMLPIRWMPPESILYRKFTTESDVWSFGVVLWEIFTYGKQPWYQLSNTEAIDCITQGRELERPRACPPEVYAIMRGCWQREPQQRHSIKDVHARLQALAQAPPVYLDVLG
Experiment [8] has as its target Membrane-associated progesterone receptor component 1 (Homo sapiens, UniProt O00264).
Experiment [9] concerns the target T2, Protein kinase C zeta type (Homo sapiens, UniProt Q05513).
T2 sequence (Q05513 whole entry): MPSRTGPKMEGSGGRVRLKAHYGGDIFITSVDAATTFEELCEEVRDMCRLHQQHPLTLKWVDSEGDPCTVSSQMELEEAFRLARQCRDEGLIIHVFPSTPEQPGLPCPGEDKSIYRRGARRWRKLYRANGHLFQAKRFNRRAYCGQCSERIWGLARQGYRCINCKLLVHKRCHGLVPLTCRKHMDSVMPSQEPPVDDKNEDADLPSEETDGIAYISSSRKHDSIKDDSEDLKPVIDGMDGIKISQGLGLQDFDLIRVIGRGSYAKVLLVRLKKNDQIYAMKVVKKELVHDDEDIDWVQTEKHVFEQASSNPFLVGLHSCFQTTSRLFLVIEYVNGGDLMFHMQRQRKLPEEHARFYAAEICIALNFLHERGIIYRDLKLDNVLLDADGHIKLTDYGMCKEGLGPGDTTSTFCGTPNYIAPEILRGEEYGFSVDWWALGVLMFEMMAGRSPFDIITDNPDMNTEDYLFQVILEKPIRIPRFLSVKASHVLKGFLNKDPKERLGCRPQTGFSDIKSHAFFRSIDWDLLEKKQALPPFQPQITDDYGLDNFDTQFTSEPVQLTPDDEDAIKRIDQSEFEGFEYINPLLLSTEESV

For experiment [10], the target named is Rho-associated protein kinase 1 (Homo sapiens, UniProt Q13464).
Rho-associated protein kinase 1, sequence (Q13464 whole entry): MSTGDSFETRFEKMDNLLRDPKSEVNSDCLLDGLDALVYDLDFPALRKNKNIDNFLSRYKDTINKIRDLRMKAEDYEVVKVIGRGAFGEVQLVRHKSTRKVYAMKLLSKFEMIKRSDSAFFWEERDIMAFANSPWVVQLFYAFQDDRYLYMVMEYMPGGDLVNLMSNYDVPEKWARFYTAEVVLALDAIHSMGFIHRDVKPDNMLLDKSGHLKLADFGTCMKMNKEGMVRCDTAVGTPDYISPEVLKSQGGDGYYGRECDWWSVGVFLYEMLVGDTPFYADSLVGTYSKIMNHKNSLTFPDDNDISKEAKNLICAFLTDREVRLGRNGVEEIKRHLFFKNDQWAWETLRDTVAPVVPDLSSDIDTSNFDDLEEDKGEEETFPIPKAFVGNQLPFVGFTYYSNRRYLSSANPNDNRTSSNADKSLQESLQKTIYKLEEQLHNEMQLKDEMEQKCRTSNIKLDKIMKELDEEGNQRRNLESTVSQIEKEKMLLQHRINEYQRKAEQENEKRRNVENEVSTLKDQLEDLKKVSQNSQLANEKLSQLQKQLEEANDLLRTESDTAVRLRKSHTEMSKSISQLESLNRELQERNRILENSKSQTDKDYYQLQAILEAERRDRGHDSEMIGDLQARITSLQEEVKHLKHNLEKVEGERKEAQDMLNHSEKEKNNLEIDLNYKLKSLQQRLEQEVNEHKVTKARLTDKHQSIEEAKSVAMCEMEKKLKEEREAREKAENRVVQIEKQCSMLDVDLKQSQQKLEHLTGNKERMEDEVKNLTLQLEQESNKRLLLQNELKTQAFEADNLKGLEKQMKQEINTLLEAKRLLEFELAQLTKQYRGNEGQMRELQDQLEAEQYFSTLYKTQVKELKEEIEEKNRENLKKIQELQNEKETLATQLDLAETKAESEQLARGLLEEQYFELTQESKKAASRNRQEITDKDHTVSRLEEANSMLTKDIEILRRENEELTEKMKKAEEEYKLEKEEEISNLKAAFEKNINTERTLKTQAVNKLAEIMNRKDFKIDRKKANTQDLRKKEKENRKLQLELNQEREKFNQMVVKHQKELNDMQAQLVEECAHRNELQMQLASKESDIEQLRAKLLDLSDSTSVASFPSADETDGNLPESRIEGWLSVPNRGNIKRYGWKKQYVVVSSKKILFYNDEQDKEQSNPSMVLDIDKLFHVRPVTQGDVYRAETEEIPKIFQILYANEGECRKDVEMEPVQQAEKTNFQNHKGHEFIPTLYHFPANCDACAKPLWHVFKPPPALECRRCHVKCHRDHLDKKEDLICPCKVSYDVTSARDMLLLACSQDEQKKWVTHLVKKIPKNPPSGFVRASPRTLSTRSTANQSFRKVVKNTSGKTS

SMILES strings stand for the structures. Active and inactive are the calls of the source.
Also: in the data inactive means no Kd found up to 30 µM.

Dual specificity protein kinase CLK2, sequence (P49760 whole entry): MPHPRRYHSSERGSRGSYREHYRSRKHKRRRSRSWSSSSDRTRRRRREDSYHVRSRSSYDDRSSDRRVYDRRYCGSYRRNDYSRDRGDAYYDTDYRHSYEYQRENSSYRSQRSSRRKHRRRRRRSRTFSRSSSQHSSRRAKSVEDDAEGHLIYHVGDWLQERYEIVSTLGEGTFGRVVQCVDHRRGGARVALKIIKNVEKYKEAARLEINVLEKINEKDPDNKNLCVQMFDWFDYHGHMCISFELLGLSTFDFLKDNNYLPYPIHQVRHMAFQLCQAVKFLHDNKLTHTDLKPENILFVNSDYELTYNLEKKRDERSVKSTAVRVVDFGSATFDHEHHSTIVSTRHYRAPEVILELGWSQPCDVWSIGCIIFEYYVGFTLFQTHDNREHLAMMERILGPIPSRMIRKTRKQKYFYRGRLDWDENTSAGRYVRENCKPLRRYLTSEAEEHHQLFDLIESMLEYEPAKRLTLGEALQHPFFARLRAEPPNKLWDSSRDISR
Dual specificity protein kinase CLK3, sequence (P49761 whole entry): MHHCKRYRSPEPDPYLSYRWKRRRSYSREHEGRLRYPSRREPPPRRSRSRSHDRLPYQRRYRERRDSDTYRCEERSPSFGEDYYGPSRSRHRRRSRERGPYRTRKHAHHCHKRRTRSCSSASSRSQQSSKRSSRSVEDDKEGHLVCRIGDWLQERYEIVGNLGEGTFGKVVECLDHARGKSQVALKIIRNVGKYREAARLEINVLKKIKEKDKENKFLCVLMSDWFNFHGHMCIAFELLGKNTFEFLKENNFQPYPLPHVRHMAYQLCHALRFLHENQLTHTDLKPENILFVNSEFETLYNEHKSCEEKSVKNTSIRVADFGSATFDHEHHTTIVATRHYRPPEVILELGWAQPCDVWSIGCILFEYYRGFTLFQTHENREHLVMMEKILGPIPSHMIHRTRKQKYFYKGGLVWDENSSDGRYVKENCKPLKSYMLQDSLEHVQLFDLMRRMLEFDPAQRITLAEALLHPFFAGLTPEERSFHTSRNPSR
Cell division cycle 7-related protein kinase, sequence (O00311 whole entry): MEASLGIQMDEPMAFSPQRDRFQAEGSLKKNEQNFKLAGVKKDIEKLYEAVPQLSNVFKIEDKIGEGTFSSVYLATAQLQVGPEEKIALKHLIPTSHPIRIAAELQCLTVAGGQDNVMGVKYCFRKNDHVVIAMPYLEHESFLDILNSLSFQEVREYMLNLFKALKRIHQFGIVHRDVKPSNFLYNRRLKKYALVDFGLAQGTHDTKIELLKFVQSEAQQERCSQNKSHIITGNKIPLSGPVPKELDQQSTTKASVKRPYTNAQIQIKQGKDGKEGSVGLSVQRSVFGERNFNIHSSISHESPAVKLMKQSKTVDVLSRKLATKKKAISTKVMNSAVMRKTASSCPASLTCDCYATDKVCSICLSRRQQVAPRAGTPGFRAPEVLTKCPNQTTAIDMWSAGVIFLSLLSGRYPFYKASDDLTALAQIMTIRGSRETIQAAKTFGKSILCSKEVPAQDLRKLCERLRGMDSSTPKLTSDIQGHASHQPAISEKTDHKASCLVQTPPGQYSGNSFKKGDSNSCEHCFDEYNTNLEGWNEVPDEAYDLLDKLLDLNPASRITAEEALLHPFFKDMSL
Membrane-associated progesterone receptor component 1, sequence (O00264 whole entry): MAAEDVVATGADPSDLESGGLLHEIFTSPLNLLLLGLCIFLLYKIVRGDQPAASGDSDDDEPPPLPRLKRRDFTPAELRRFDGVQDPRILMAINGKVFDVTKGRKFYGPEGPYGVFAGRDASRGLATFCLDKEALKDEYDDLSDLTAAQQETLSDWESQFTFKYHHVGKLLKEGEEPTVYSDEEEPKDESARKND
MAP kinase-activated protein kinase 3, sequence (Q16644 whole entry): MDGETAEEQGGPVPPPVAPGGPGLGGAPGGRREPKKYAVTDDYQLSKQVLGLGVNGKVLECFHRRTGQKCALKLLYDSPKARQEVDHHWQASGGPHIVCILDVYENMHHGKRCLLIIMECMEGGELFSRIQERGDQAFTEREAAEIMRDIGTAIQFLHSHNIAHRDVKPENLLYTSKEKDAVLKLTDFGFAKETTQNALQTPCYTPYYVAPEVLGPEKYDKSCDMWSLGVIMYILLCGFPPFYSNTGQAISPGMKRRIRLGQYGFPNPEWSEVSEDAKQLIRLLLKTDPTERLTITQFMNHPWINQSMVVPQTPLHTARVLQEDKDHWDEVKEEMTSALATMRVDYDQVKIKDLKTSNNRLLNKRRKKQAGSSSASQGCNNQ

For the compound `COCCN1CCN(Cc2ccc(-c3n[nH]c4c3C(=O)c3c(NC(=O)NN5CCOCC5)cccc3-4)cc2)CC1` [RGB-286638], the Kd is > 30 µM (inactive) in experiment [1]; > 30 µM (inactive) in [2]; 0.018 µM (active) in experiment [3]; > 30 µM (inactive) in experiment [4]; > 30 µM (inactive) in experiment [5]; > 30 µM (inactive) in experiment [6]. Further, the Kd in experiment [7], in experiment [8], in experiment [9] and in [10] was > 30 µM (inactive) throughout.

Consider `COc1cc2nccc(Oc3ccc(NC(=O)C4(C(=O)Nc5ccc(F)cc5)CC4)cc3)c2cc1OC` [CABOZANTINIB], for which the Kd was > 30 µM (inactive) in experiment [1]; > 30 µM (inactive) in experiment [2]; > 30 µM (inactive) in [3]; > 30 µM (inactive) in [5]; 4.11 µM (active) in experiment [7]; > 30 µM (inactive) in [8]. For the same compound, the Kd in experiment [9] and in experiment [10] was > 30 µM (inactive) in each case.

For the compound `Cc1cc(Nc2nc(N[C@@H](C)c3ncc(F)cn3)ncc2Cl)n[nH]1` [AZD-1480], the Kd in experiment [1], in experiment [2], in experiment [3], in [4], in [5] and in experiment [6] was > 30 µM (inactive) each time. In addition, the Kd in experiment [7], in experiment [8], in experiment [9] and in experiment [10] was > 30 µM (inactive) each time.

Take `O=C(Nc1ccc(OC(F)(F)F)cc1)c1sccc1NCc1ccnc2ccccc12` [OSI-930]: the Kd in experiment [1], in [2], in [3], in experiment [4], in [5] and in [7] was > 30 µM (inactive) throughout. The Kd in [8], in experiment [9] and in experiment [10] was > 30 µM (inactive) in each case.

In the case of `COc1cccc2cc(-c3nc([C@H]4CC[C@H](C(=O)O)CC4)n4ncnc(N)c34)[nH]c12` [OSI-027], the Kd in experiment [3], in experiment [4], in experiment [5], in experiment [6], in experiment [7] and in experiment [8] was > 30 µM (inactive) each time. The Kd in experiment [9] and in experiment [10] was > 30 µM (inactive) throughout.

For `CCN1CCN(Cc2ccc(Nc3ncc(F)c(-c4cc(F)c5nc(C)n(C(C)C)c5c4)n3)nc2)CC1` [ABEMACICLIB], the Kd in [1], in [2], in [4], in experiment [5], in experiment [6] and in experiment [7] was > 30 µM (inactive) throughout. For the same compound, the Kd in experiment [9] and in [10] was > 30 µM (inactive) throughout.

As for `Cc1c(Cn2c(C)nc3c(C(=O)O)cc(N4CCOCC4)cc32)cccc1C(F)(F)F` [GSK-2636771], the Kd in experiment [1], in [2], in experiment [3], in [4], in experiment [5] and in experiment [7] was > 30 µM (inactive) throughout. In addition, the Kd in [8], in experiment [9] and in experiment [10] was > 30 µM (inactive) throughout.

As to `Cn1cc(-c2[nH]c3cc(NC(=O)[C@H](N)C4CCCCC4)cc4c3c2C=NNC4=O)cn1`, the Kd in experiment [1], in [2], in [3], in [5], in experiment [7] and in experiment [8] was > 30 µM (inactive) throughout. The Kd in experiment [9] and in experiment [10] was > 30 µM (inactive) throughout.

Take `CCc1cc2c(cc1N1CCC(N3CCOCC3)CC1)C(C)(C)c1[nH]c3cc(C#N)ccc3c1C2=O` [ALECTINIB]: the Kd is 1.4 µM (active) in experiment [1]; > 30 µM (inactive) in experiment [2]; 2.32 µM (active) in experiment [3]; > 30 µM (inactive) in experiment [6]; > 30 µM (inactive) in experiment [7]; > 30 µM (inactive) in experiment [9]. Moreover, in experiment [10], the Kd is > 30 µM (inactive).

As for `CN(C)C/C=C/C(=O)Nc1cc2c(Nc3ccc(F)c(Cl)c3)ncnc2cc1O[C@H]1CCOC1` [AFATINIB], the Kd in experiment [2], in experiment [6], in experiment [8] and in experiment [9] was > 30 µM (inactive) each time.

As to `Cc1cc(-c2cc(OC(=O)c3ccccc3)ccc2Cl)cc2nnc(Nc3ccc(OCCN4CCCC4)cc3)nc12` [TG100-801], the Kd in experiment [3], in [4], in [6], in experiment [7], in [9] and in experiment [10] was > 30 µM (inactive) throughout.

As for `O=C(NC[C@H](O)CO)c1ccncc1Nc1ccc(I)cc1F` [PIMASERTIB], the Kd in experiment [1] is > 30 µM (inactive); in experiment [2], > 30 µM (inactive); in [3], > 30 µM (inactive); in [4], > 30 µM (inactive); in experiment [5], 0.011 µM; in experiment [7] it was > 30 µM (inactive). In addition, the Kd in [8] is > 30 µM (inactive); in [9] it was 10.4 µM; in experiment [10], > 30 µM (inactive).

Turning to `NC(=O)c1ccc(N(C(N)=O)c2c(F)cccc2F)nc1-c1ccc(F)cc1F` [VX-702], the Kd in [3], in experiment [4], in experiment [6], in [7], in [8] and in [9] was > 30 µM (inactive) throughout. Besides, in experiment [10], the Kd is > 30 µM (inactive).

Turning to `C[C@@]1(C(=O)Nc2ccc(F)nc2)CCCN1c1nc(Nc2cc(C3CC3)n[nH]2)c2cccn2n1` [BMS-754807], the Kd in [5], in experiment [6] and in experiment [9] was > 30 µM (inactive) throughout.

On to `O[C@H]1CC[C@H](Nc2ncc3nc(Nc4c(F)cc(F)cc4F)n([C@H]4CCOC4)c3n2)CC1` [TANZISERTIB], for which the Kd in [3], in experiment [5], in experiment [6], in experiment [7], in [9] and in experiment [10] was > 30 µM (inactive) throughout.

As to `Cn1c(=O)n(-c2ccc(C(C)(C)C#N)cc2)c2c3cc(-c4cnc5ccccc5c4)ccc3ncc21` [DACTOLISIB], the Kd in experiment [4], in experiment [5], in experiment [6], in experiment [8] and in experiment [9] was > 30 µM (inactive) each time.

The record behind these values is ChEMBL document CHEMBL3991601, “The target landscape of clinical kinase drugs” (Science, 2017).
